Values joined by “and” are separate entries in the source; they are usually repeats but may differ in a detail not shown here. Equal entries are not always repeated.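 Growth conditions: 96-well plates. Treatment: test compound, 48 hours, 5 concentrations. Analysis: linear interpolation between bracketing concentrations; unreached endpoints set to highest concentration. GI50 = concentration required for 50% inhibition of growth. TGI marks complete inhibition of growth.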
Key:
Experiment in all cases: DTP human tumour cell line panel, 48 h
XF 498 CNS = tested on: XF 498 CNS
TK-10 renal = tested on: TK-10 renal
MDA-MB-231 breast = tested on: MDA-MB-231 breast
LOX IMVI melanoma = tested on: LOX IMVI melanoma
NCI-H522 lung = tested on: NCI-H522 lung
HL-60(TB) leukemia = tested on: HL-60(TB) leukemia
SNB-78 CNS = tested on: SNB-78 CNS
DU-145 prostate = tested on: DU-145 prostate
RPMI-8226 leukemia = tested on: RPMI-8226 leukemia
SK-MEL-2 melanoma = tested on: SK-MEL-2 melanoma
DLD-1 colon = tested on: DLD-1 colon
SF-295 CNS = tested on: SF-295 CNS
HS 578T breast = tested on: HS 578T breast
SK-MEL-28 melanoma = tested on: SK-MEL-28 melanoma
MDA-MB-435 = tested on: MDA-MB-435

Question: What does the source list for COc1ccc(CC2C(=O)NC(C)C(=O)N(C)C3Cc4ccc(cc4)Oc4cc(ccc4O)CC(C(=O)NC(C)C(=O)NC(C)C(=O)N2C)N(C)C3=O)cc1 (centres undefined)?
Answer: TGI (XF 498 CNS): 0.0224 µM; TGI (TK-10 renal): 0.979 µM and 0.21 µM; TGI (MDA-MB-231 breast): 0.0671 µM; GI50 (LOX IMVI melanoma): < 0.0001 µM; GI50 (NCI-H522 lung): < 0.0001 µM; GI50 (HL-60(TB) leukemia): < 0.0001 µM; TGI (SNB-78 CNS): 0.0256 µM; TGI (DU-145 prostate): 0.00288 µM; GI50 (RPMI-8226 leukemia): < 0.0001 µM; TGI (RPMI-8226 leukemia): 0.0327 µM and 0.0179 µM; GI50 (SK-MEL-2 melanoma): < 0.0001 µM; TGI (DLD-1 colon): 1.09 µM

Question: How did the TGI (TK-10 renal) turn out when COc1ccc(-c2c(C(C)=O)c(C)n(C3OC(CO)C(O)C(O)C3O)c(=S)c2C#N)cc1 (centres undefined) was run?
Answer: > 100 µM

Question: What about the TGI (SF-295 CNS) of the same compound?
Answer: > 100 µM

Question: And the TGI (HS 578T breast)?
Answer: > 100 µM

Question: And the TGI (MDA-MB-231 breast)?
Answer: > 100 µM

Question: And the TGI (SK-MEL-28 melanoma)?
Answer: > 100 µM

Question: And the TGI (LOX IMVI melanoma)?
Answer: > 100 µM

Question: What about the TGI (HL-60(TB) leukemia) of the same compound?
Answer: > 100 µM

Question: What about the TGI (DU-145 prostate) of the same compound?
Answer: > 100 µM

Question: What about the TGI (RPMI-8226 leukemia) of the same compound?
Answer: > 100 µM

Question: What about the TGI (MDA-MB-435) of the same compound?
Answer: > 100 µM

Question: What does the source list for NC(CO)c1ccccc1 (centres undefined)?
Answer: TGI (XF 498 CNS): > 100 µM; TGI (TK-10 renal): > 100 µM; TGI (SF-295 CNS): > 100 µM; TGI (SK-MEL-28 melanoma): > 100 µM; TGI (LOX IMVI melanoma): > 100 µM; TGI (NCI-H522 lung): > 100 µM; TGI (HL-60(TB) leukemia): > 100 µM; TGI (SNB-78 CNS): > 100 µM; TGI (SK-MEL-2 melanoma): > 100 µM; TGI (DLD-1 colon): > 100 µM

Question: CCOC(=O)C(Cc1c(-c2[nH]c3ccccc3c2CC(NC(=O)CNC(C)=O)C(=O)OCC)[nH]c2ccccc12)NC(=O)CNC(C)=O (centres undefined) was tested. Which TGI (TK-10 renal) did it give?
Answer: > 100 µM

Question: What about the TGI (SF-295 CNS) of the same compound?
Answer: > 100 µM

Question: What about the TGI (HS 578T breast) of the same compound?
Answer: > 100 µM

Question: And the TGI (MDA-MB-231 breast)?
Answer: 40.6 µM

Question: What about the TGI (SK-MEL-28 melanoma) of the same compound?
Answer: > 100 µM

Question: What about the TGI (NCI-H522 lung) of the same compound?
Answer: 88.8 µM

Question: And the TGI (DU-145 prostate)?
Answer: > 100 µM

Question: And the TGI (RPMI-8226 leukemia)?
Answer: > 100 µM

Question: What about the TGI (SK-MEL-2 melanoma) of the same compound?
Answer: 39.9 µM

Question: And the TGI (MDA-MB-435)?
Answer: > 100 µM

Question: What does the source list for CC(=O)c1nccc2c1c(C)nc1ccccc12?
Answer: TGI (TK-10 renal): > 100 µM; TGI (SF-295 CNS): > 100 µM; TGI (HS 578T breast): 96.3 µM; TGI (MDA-MB-231 breast): > 100 µM; TGI (SK-MEL-28 melanoma): > 100 µM; TGI (LOX IMVI melanoma): > 100 µM; TGI (NCI-H522 lung): > 100 µM; TGI (HL-60(TB) leukemia): > 100 µM; TGI (DU-145 prostate): > 100 µM; TGI (RPMI-8226 leukemia): 61 µM; TGI (SK-MEL-2 melanoma): > 100 µM; TGI (MDA-MB-435): > 100 µM

Question: Which TGI (XF 498 CNS) does the source give for C=C1C(=O)C[C@@]23CCC[C@@]12CC(O)C3 (some centres undefined) here?
Answer: 41.1 µM

Question: And the TGI (SF-295 CNS)?
Answer: > 100 µM

Question: What about the TGI (SK-MEL-28 melanoma) of the same compound?
Answer: 49.8 µM

Question: What about the TGI (LOX IMVI melanoma) of the same compound?
Answer: 31.3 µM

Question: And the TGI (NCI-H522 lung)?
Answer: 7.55 µM

Question: What about the TGI (HL-60(TB) leukemia) of the same compound?
Answer: 49.9 µM

Question: What about the TGI (SNB-78 CNS) of the same compound?
Answer: 99 µM

Question: And the TGI (RPMI-8226 leukemia)?
Answer: 61.3 µM

Question: And the TGI (SK-MEL-2 melanoma)?
Answer: 73.2 µM

Question: What about the TGI (DLD-1 colon) of the same compound?
Answer: 54.8 µM

— PubChem BioAssay (NCI)
